Results on one molecule are retold here after ChEMBL document CHEMBL4004803, “Syntheses and antibacterial activity of soluble 9-bromo substituted indolizinoquinoline-5,12-dione derivatives” (Eur J Med Chem, 2017).

SMILES strings stand for the structures. In brackets after ≈: the same amount, converted by molar mass.

Holding throughout (assay type): functional
In assay [1] the test system is Staphylococcus aureus. Nature of the assay: Antibacterial activity against methicillin-resistant Staphylococcus aureus 111423 clinical isolate after 20 to 24 hrs by two-fold microdilution method. Background: Broth dilution looks for growth in wells or tubes with falling amounts of substance.
Assay [2] deals with Staphylococcus aureus. Description: Antibacterial activity against methicillin-resistant Staphylococcus aureus 1026021 clinical isolate after 20 to 24 hrs by two-fold microdilution method.
The subject of assay [3] is Staphylococcus aureus. Nature of the assay: Antibacterial activity against methicillin-resistant Staphylococcus aureus 1216052 clinical isolate after 20 to 24 hrs by two-fold microdilution method.
For assay [4], the system named is Staphylococcus aureus. Nature of the assay: Antibacterial activity against methicillin-resistant Staphylococcus aureus 1103006 clinical isolate after 20 to 24 hrs by two-fold microdilution method.
Assay [5] concerns Staphylococcus aureus. Nature of the assay: Antibacterial activity against methicillin-resistant Staphylococcus aureus clinical isolate after 20 to 24 hrs by two-fold microdilution method.
In assay [6] the test system is Staphylococcus aureus. Nature of the assay: Antibacterial activity against methicillin-resistant Staphylococcus aureus 1106003 clinical isolate after 20 to 24 hrs by two-fold microdilution method.

A word on the MIC: it is the smallest concentration in the dilution series that meets the test's criterion for growth inhibition. Low values mean inhibition by little substance, high ones a need for much substance. For orientation: MIC50 means an inhibitory concentration at the 50% level, which refers to growth in some studies and to a panel of isolates in others. The term MIC90 denotes an inhibitory concentration at the 90% level, which refers to growth in some studies and to a panel of isolates in others. Lower therefore signals greater potency.

For `CN[C@H](CC(C)C)C(=O)N[C@H]1C(=O)N[C@@H](CC(N)=O)C(=O)N[C@H]2C(=O)N[C@H]3C(=O)N[C@H](C(=O)N[C@H](C(=O)O)c4cc(O)cc(O)c4-c4cc3ccc4O)[C@H](O)c3ccc(c(Cl)c3)Oc3cc2cc(c3O[C@@H]2O[C@H](CO)[C@@H](O)[C@H](O)[C@H]2O[C@H]2C[C@](C)(N)[C@H](O)[C@H](C)O2)Oc2ccc(cc2Cl)[C@H]1O` [VANCOMYCIN], the MIC in assay [1] was above 16 µg/mL; in assay [2] it was 16 µg/mL (≈ 11 µM); in assay [3] it was above 16 µg/mL; in assay [4] it was above 16 µg/mL; in assay [6], above 16 µg/mL. This molecule came in with an MIC50 in assay [5] of 1 µg/mL (≈ 0.69 µM). For the same molecule, the MIC90 in assay [5] is 2 µg/mL (≈ 1.38 µM).
